#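 Cells were grown in 96-well plates and exposed to each compound for 48 hours at five concentrations; endpoints were interpolated linearly between bracketing concentrations, or set to the highest concentration if not reached. Here, GI50 denotes the concentration required for 50% inhibition of growth. TGI: concentration producing complete growth inhibition.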
# Columns and labels:
# Assay in all cases: inhibition of tumour cell growth, NCI panel, 48 h
# ACHN renal = tested on: ACHN renal
# SK-MEL-28 melanoma = tested on: SK-MEL-28 melanoma
# SN12C renal = tested on: SN12C renal
# MCF7 breast = tested on: MCF7 breast
# HCC-2998 colon = tested on: HCC-2998 colon
# MDA-MB-231 breast = tested on: MDA-MB-231 breast
# NCI-H460 lung = tested on: NCI-H460 lung
# EKVX NSCLC = tested on: EKVX NSCLC
# SF-268 CNS = tested on: SF-268 CNS
# OVCAR-4 ovarian = tested on: OVCAR-4 ovarian
# KM12 colon = tested on: KM12 colon
# CAKI-1 renal = tested on: CAKI-1 renal
# DU-145 prostate = tested on: DU-145 prostate
# UACC-62 melanoma = tested on: UACC-62 melanoma
# NCI/ADR-RES ovarian = tested on: NCI/ADR-RES ovarian
# LOX IMVI melanoma = tested on: LOX IMVI melanoma
# SNB-75 CNS = tested on: SNB-75 CNS
# HOP-92 NSCLC = tested on: HOP-92 NSCLC
# HCT-15 colon = tested on: HCT-15 colon
# SR leukemia = tested on: SR leukemia
# BT-549 breast = tested on: BT-549 breast
# NCI-H522 lung = tested on: NCI-H522 lung
# K-562 leukemia = tested on: K-562 leukemia
# T-47D breast = tested on: T-47D breast
# MOLT-4 leukemia = tested on: MOLT-4 leukemia
# UACC-257 melanoma = tested on: UACC-257 melanoma
# A498 renal = tested on: A498 renal
# 786-0 renal = tested on: 786-0 renal
# MDA-MB-435 = tested on: MDA-MB-435
# IGROV1 ovarian = tested on: IGROV1 ovarian
# RPMI-8226 leukemia = tested on: RPMI-8226 leukemia
# SK-MEL-2 melanoma = tested on: SK-MEL-2 melanoma
# OVCAR-3 ovarian = tested on: OVCAR-3 ovarian
# SF-295 CNS = tested on: SF-295 CNS
# SK-OV-3 ovarian = tested on: SK-OV-3 ovarian
# TK-10 renal = tested on: TK-10 renal
# NCI-H226 lung = tested on: NCI-H226 lung
# SW-620 colon = tested on: SW-620 colon
# SNB-19 CNS = tested on: SNB-19 CNS
# UO-31 renal = tested on: UO-31 renal
# M14 melanoma = tested on: M14 melanoma
# SK-MEL-5 melanoma = tested on: SK-MEL-5 melanoma
# COLO 205 colon = tested on: COLO 205 colon
# HOP-62 NSCLC = tested on: HOP-62 NSCLC
# HS 578T breast = tested on: HS 578T breast
# PC-3 prostate = tested on: PC-3 prostate
# HL-60(TB) leukemia = tested on: HL-60(TB) leukemia
# SF-539 CNS = tested on: SF-539 CNS
# CCRF-CEM leukemia = tested on: CCRF-CEM leukemia
# OVCAR-5 ovarian = tested on: OVCAR-5 ovarian
# MALME-3M melanoma = tested on: MALME-3M melanoma
# HCT-116 colon = tested on: HCT-116 colon
# HT29 colon = tested on: HT29 colon
# OVCAR-8 ovarian = tested on: OVCAR-8 ovarian
# A549 NSCLC = tested on: A549 NSCLC
# NCI-H23 lung = tested on: NCI-H23 lung
compound,measurement,setting,value
CN(C)CCCOc1ccc(C(=C(c2ccccc2)C2CCCC2)c2ccc(OCCCN(C)C)cc2)cc1,GI50,ACHN renal,2.12 µM
same,TGI,ACHN renal,4.7 µM
same,GI50,SK-MEL-28 melanoma,1.62 µM
same,TGI,SK-MEL-28 melanoma,3.01 µM
same,GI50,SN12C renal,1.64 µM
same,TGI,SN12C renal,3.04 µM
same,GI50,MCF7 breast,1.33 µM
same,TGI,MCF7 breast,2.69 µM
same,GI50,HCC-2998 colon,1.93 µM
same,TGI,HCC-2998 colon,3.91 µM
same,GI50,MDA-MB-231 breast,1.74 µM
same,TGI,MDA-MB-231 breast,3.22 µM
same,GI50,NCI-H460 lung,1.69 µM
same,TGI,NCI-H460 lung,3.16 µM
same,GI50,EKVX NSCLC,7.43 µM
same,TGI,EKVX NSCLC,21.3 µM
same,GI50,SF-268 CNS,2.51 µM
same,TGI,SF-268 CNS,7.16 µM
same,GI50,OVCAR-4 ovarian,1.91 µM
same,TGI,OVCAR-4 ovarian,4.34 µM
same,GI50,KM12 colon,3.56 µM
same,TGI,KM12 colon,13.1 µM
same,GI50,CAKI-1 renal,3.62 µM
same,TGI,CAKI-1 renal,13.6 µM
same,GI50,DU-145 prostate,4.43 µM
same,TGI,DU-145 prostate,15.2 µM
same,GI50,UACC-62 melanoma,1.6 µM
same,TGI,UACC-62 melanoma,2.98 µM
same,GI50,NCI/ADR-RES ovarian,2.85 µM
same,GI50,LOX IMVI melanoma,1.63 µM
same,TGI,LOX IMVI melanoma,2.99 µM
same,GI50,SNB-75 CNS,9.08 µM
same,TGI,SNB-75 CNS,22.1 µM
same,GI50,HOP-92 NSCLC,2.72 µM
same,TGI,HOP-92 NSCLC,15.2 µM
same,GI50,HCT-15 colon,1.67 µM
same,TGI,HCT-15 colon,3.22 µM
same,GI50,SR leukemia,2 µM
same,TGI,SR leukemia,7.36 µM
same,GI50,BT-549 breast,15.3 µM
same,TGI,BT-549 breast,30.8 µM
same,GI50,NCI-H522 lung,1.55 µM
same,TGI,NCI-H522 lung,3.12 µM
same,GI50,K-562 leukemia,2.02 µM
same,TGI,K-562 leukemia,5.26 µM
same,GI50,T-47D breast,9.86 µM
same,TGI,T-47D breast,25.3 µM
same,GI50,MOLT-4 leukemia,2.56 µM
same,TGI,MOLT-4 leukemia,6.34 µM
same,GI50,UACC-257 melanoma,10.7 µM
same,TGI,UACC-257 melanoma,24.1 µM
same,GI50,A498 renal,13.8 µM
same,TGI,A498 renal,28.5 µM
same,GI50,786-0 renal,2.62 µM
same,TGI,786-0 renal,8.3 µM
same,GI50,MDA-MB-435,1.7 µM
same,TGI,MDA-MB-435,3.09 µM
same,GI50,IGROV1 ovarian,2.07 µM
same,TGI,IGROV1 ovarian,4.58 µM
same,GI50,RPMI-8226 leukemia,2.17 µM
same,TGI,RPMI-8226 leukemia,5.75 µM
same,GI50,SK-MEL-2 melanoma,11.6 µM
same,TGI,SK-MEL-2 melanoma,24.1 µM
same,GI50,OVCAR-3 ovarian,2.16 µM
same,TGI,OVCAR-3 ovarian,5.19 µM
same,GI50,SF-295 CNS,1.85 µM
same,TGI,SF-295 CNS,3.98 µM
same,GI50,SK-OV-3 ovarian,17.1 µM
same,TGI,SK-OV-3 ovarian,33 µM
same,GI50,TK-10 renal,14.6 µM
same,TGI,TK-10 renal,28.9 µM
same,GI50,NCI-H226 lung,2.81 µM
same,TGI,NCI-H226 lung,11.4 µM
same,GI50,SW-620 colon,1.58 µM
same,TGI,SW-620 colon,3.02 µM
same,GI50,SNB-19 CNS,2.15 µM
same,TGI,SNB-19 CNS,5.67 µM
same,GI50,UO-31 renal,1.54 µM
same,TGI,UO-31 renal,3.08 µM
same,GI50,M14 melanoma,1.85 µM
same,TGI,M14 melanoma,3.74 µM
same,GI50,SK-MEL-5 melanoma,12.1 µM
same,TGI,SK-MEL-5 melanoma,24.5 µM
same,GI50,COLO 205 colon,1.71 µM
same,TGI,COLO 205 colon,3.62 µM
same,GI50,HOP-62 NSCLC,14.6 µM
same,TGI,HOP-62 NSCLC,32.6 µM
same,GI50,HS 578T breast,2.13 µM
same,TGI,HS 578T breast,5.53 µM
same,GI50,PC-3 prostate,3.26 µM
same,TGI,PC-3 prostate,14.2 µM
same,GI50,HL-60(TB) leukemia,2.03 µM
same,TGI,HL-60(TB) leukemia,4.44 µM
same,GI50,SF-539 CNS,1.69 µM
same,TGI,SF-539 CNS,3.06 µM
same,GI50,CCRF-CEM leukemia,2.58 µM
same,TGI,CCRF-CEM leukemia,6.85 µM
same,GI50,OVCAR-5 ovarian,1.85 µM
same,TGI,OVCAR-5 ovarian,4.68 µM
same,GI50,MALME-3M melanoma,1.64 µM
same,TGI,MALME-3M melanoma,3.01 µM
same,GI50,HCT-116 colon,1.89 µM
same,TGI,HCT-116 colon,4.13 µM
same,GI50,HT29 colon,1.97 µM
same,TGI,HT29 colon,3.97 µM
same,GI50,OVCAR-8 ovarian,1.98 µM
same,TGI,OVCAR-8 ovarian,4.87 µM
same,GI50,A549 NSCLC,3.47 µM
same,TGI,A549 NSCLC,16.6 µM
same,GI50,NCI-H23 lung,4.95 µM
same,TGI,NCI-H23 lung,17.5 µM
